# Assay results: patent US20260184706A1, “PHENYLSULFONAMIDE DERIVATIVES, PREPARATION METHOD THEREFOR, AND PHARMACEUTICAL COMPOSITION FOR PREVENTION OR TREATMENT OF CANCER CONTAINING SAME AS ACTIVE INGREDIENT” (Korea Research Institute of Chemical Technology, priority 2022, published 2026)
# Biological target: recombinant human GCN2 protein (Homo sapiens, UniProt Q9P2K8)
# Assay: General control nonderepressible 2 (GCN2) inhibitory capacity, 33P-ATP filter assay
# Assay type: biochemical
# Details: recombinant human GCN2, 70 uM [gamma-33P-ATP], 40 minutes, room temperature
# Protocol: <Experimental Example 2> Evaluation of General Control Nonderepressible 2 (GCN2) Inhibitory Capacity
# A recombinant human GCN2 protein was mixed with the compound in a reaction solution (20 mM Tris/HCl pH8.5, 0.2 mM EDTA, 0.1% Tween, 100 mM NaCl, 300 μM RSRSRSRSRSRSRSR, 10 mM Magnesium acetate, 70 uM [gamma-33P-ATP]) and reacted at room temperature for 40 minutes. Then, the reaction was terminated by adding phosphoric acid (0.5%) to the reaction mixture, and 10 ul of the reaction solution was dropped onto a P30 filter. The filter was washed four times in a 0.425% phosphoric acid solution for 4 minutes, then washed once more in methanol, dried, and the GCN2 activity was measured by scintillation counting. […] The compound was diluted by 1/3 from the highest concentration of 1 uM and treated with a total of 9 concentrations to evaluate the degree of inhibition.
# Sequence of recombinant human GCN2 protein (Q9P2K8 whole entry): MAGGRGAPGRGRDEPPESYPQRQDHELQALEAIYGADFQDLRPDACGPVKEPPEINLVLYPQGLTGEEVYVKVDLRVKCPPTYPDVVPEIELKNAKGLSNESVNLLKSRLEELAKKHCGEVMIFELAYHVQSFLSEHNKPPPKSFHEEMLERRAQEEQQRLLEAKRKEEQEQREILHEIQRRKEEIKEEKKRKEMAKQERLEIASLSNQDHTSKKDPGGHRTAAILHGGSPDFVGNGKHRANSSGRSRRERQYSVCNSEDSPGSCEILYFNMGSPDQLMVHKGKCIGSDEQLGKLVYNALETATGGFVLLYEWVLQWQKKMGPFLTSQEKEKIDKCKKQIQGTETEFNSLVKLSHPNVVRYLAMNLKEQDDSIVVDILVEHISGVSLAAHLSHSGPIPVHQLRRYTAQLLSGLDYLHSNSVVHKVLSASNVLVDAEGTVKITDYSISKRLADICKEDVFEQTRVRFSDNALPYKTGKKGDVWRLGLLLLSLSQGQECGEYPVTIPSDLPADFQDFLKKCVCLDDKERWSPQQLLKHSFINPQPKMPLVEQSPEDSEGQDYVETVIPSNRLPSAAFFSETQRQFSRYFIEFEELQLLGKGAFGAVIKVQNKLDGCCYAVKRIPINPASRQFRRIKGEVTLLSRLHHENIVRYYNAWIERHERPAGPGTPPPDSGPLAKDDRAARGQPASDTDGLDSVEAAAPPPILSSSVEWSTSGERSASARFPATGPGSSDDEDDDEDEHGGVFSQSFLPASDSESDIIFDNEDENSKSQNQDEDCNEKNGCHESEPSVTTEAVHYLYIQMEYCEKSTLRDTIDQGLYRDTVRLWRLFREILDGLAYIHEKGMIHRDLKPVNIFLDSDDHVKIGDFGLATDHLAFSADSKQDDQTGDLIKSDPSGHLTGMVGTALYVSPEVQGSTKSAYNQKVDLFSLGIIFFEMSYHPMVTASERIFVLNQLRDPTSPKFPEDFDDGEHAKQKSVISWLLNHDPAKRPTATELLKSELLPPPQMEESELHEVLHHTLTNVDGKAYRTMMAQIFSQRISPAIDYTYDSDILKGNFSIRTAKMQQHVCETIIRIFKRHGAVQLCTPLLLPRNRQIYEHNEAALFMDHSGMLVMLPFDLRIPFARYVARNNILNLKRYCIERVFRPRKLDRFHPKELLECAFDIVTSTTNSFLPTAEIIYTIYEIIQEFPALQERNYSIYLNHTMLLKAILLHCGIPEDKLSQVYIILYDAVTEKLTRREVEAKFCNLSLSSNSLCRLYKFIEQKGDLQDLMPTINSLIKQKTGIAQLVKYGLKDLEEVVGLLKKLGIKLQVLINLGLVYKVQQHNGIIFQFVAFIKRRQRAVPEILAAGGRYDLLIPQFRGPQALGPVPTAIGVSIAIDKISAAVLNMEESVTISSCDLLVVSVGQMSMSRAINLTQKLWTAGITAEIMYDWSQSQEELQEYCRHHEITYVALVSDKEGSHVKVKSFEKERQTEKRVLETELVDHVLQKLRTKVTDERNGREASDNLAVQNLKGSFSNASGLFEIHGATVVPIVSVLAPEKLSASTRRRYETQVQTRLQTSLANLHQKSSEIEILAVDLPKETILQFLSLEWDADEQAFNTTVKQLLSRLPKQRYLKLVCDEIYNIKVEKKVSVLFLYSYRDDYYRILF
row,IC50 [nM],Structure (SMILES)
1,> 1000,"CN1C(=O)Cc2cc(S(=O)(=O)Nc3ccc(F)c(-n4c(=O)c5cnc(N)nc5n(C)c4=O)c3F)ccc21 [Example 53, N-(3-(7-amino-1-methyl-2,4-dioxo-1,4-dihydropyrimido[4,5-d]pyrimidin-3(2H)-yl)-2,4-difluorophenyl)-1-methyl-2-oxoindoline-5-sulfonamide]"
2,100 to 300,"Cn1c(=O)n(-c2c(F)ccc(NS(=O)(=O)c3cc(F)ccc3F)c2F)c(=O)c2cnc(N)nc21 [Example 54, N-(3-(7-amino-1-methyl-2,4-dioxo-1,4-dihydropyrimido[4,5-d]pyrimidin-3(2H)-yl)-2,4-difluorophenyl)-2,5-difluorobenzenesulfonamide]"
3,100 to 300,"Cn1c(=O)n(-c2c(F)ccc(NS(=O)(=O)c3ccc(Cl)cc3Cl)c2F)c(=O)c2cnc(N)nc21 [Example 55, N-(3-(7-amino-1-methyl-2,4-dioxo-1,2-dihydropyrimido[4,5-d]pyrimidin-3(4H)-yl)-2,4-difluorophenyl)-2,4-dichlorobenzenesulfonamide]"
4,> 1000,"Cn1cc(S(=O)(=O)Nc2ccc(F)c(-n3c(=O)c4cnc(N)nc4n(C)c3=O)c2F)cn1 [Example 56, N-(3-(7-amino-1-methyl-2,4-dioxo-1,4-dihydropyrimido[4,5-d]pyrimidin-3(2H)-yl)-2,4-difluorophenyl)-1-methyl-1H-pyrazole-4-sulfonamide]"
5,100 to 300,"CNc1ncc2c(=O)n(-c3c(F)ccc(NS(=O)(=O)c4cc(Cl)cnc4OC)c3F)c(=O)n(C)c2n1 [Example 58, 5-chloro-N-(2,4-difluoro-3-(1-methyl-7-(methylamino)-2,4-dioxo-1,4-dihydropyrimido[4,5-d]pyrimidin-3(2H)-yl)phenyl)-2-methoxypyridine-3-sulfonamide]"
6,100 to 300,"Nc1ncc2c(n1)N(C1CC1)CN(c1c(F)ccc(NS(=O)(=O)c3cc(Cl)ccc3Cl)c1F)C2=O [Example 59, N-(3-(7-amino-1-cyclopropyl-4-oxo-1,4-dihydropyrimido[4,5-d]pyrimidin-3(2H)-yl)-2,4-difluorophenyl)-2,5-dichlorobenzenesulfonamide]"
7,100 to 300,"COc1ncc(Cl)cc1S(=O)(=O)Nc1ccc(F)c(N2CN(C3CC3)c3nc(N)ncc3C2=O)c1F [Example 60, N-(3-(7-amino-1-cyclopropyl-4-oxo-1,4-dihydropyrimido[4,5-d]pyrimidin-3(2H)-yl)-2,4-difluorophenyl)-5-chloro-2-methoxypyridine-3-sulfonamide]"
8,100 to 300,"Nc1ncc2c(n1)N(C1CC1)CN(c1c(F)ccc(NS(=O)(=O)c3cccc4ccccc34)c1F)C2=O [Example 61, N-(3-(7-amino-1-cyclopropyl-4-oxo-1,4-dihydropyrimido[4,5-d]pyrimidin-3(2H)-yl)-2,4-difluorophenyl)naphthalene-1-sulfonamide]"
9,> 1000,"Cc1nn(C)c(Cl)c1S(=O)(=O)Nc1ccc(F)c(N2CN(C3CC3)c3nc(N)ncc3C2=O)c1F [Example 62, N-(3-(7-amino-1-cyclopropyl-4-oxo-1,4-dihydropyrimido[4,5-d]pyrimidin-3(2H)-yl)-2,4-difluorophenyl)-5-chloro-1,3-dimethyl-1H-pyrazole-4-sulfonamide]"
10,300 to 1000,"Cc1nn(C)c(Cl)c1S(=O)(=O)Nc1ccc(F)c(-n2c(=O)c3cnc(N)nc3n(C3CC3)c2=O)c1F [Example 66, N-(3-(7-amino-1-cyclopropyl-2,4-dioxo-1,4-dihydropyrimido[4,5-d]pyrimidin-3(2H)-yl)-2,4-difluorophenyl)-5-chloro-1,3-dimethyl-1H-pyrazole-4-sulfonamide]"

# The next lines start with the molecule.
row,Structure (SMILES),IC50 [nM]
1,"COc1ncc(Cl)cc1S(=O)(=O)Nc1ccc(F)c(-n2cc(C)c3nc(N)ncc3c2=O)c1F [Example 21, N-(3-(2-amino-8-methyl-5-oxopirido[4,3-d]pyrimidin-6(5H)-yl)-2,4-difluorophenyl)-5-chloro-2-methoxypyridine-3-sulfonamide]",< 100
2,"COc1ncc(Cl)cc1S(=O)(=O)Nc1ccc(F)c(-n2cc(CO)c3nc(N)ncc3c2=O)c1F [Example 23, N-(3-(2-amino-8-hydroxymethyl)-5-oxopirido[4,3-d]pyrimidin-6(5H)-2,4-difluorophenyl)-5-chloro-2-methoxypyridine-3-sulfonamide]",100 to 300
3,"Nc1ncc2c(=O)n(-c3c(F)ccc(NS(=O)(=O)c4cc(Cl)ccc4Cl)c3F)ccc2n1 [Example 24, N-(3-(2-amino-5-oxopirido[4,3-d]pyrimidin-6(5H)-yl)-2,4-difluorophenyl)-2,5-dichlorobenzenesulfonamide]",< 100
4,"Cc1nn(C)c(Cl)c1S(=O)(=O)Nc1ccc(F)c(-n2ccc3nc(N)ncc3c2=O)c1F [Example 30, N-(3-(2-amino-5-oxopirido[4,3-d]pyrimidin-6(5H)-yl)-2,4-difluorophenyl)-5-chloro-1,3-dimethyl-1H-pyrazole-4-sulfonamide]",100 to 300
5,"Nc1ncc2c(=O)n(-c3c(F)ccc(NS(=O)(=O)c4ccc(Cl)s4)c3F)ccc2n1 [Example 31, N-(3-(2-amino-5-oxopirido[4,3-d]pyrimidin-6(5H)-yl)-2,4-difluorophenyl)-5-chlorothiophene-2-sulfonamide]",100 to 300
6,"COc1ncc(Cl)cc1S(=O)(=O)Nc1ccc(F)c(-n2cc(Br)c3nc(N)ncc3c2=O)c1F [Example 33, N-(3-(2-amino-8-bromo-5-oxopirido[4,3-d]pyrimidin-6(5H)-yl)-2,4-difluorophenyl)-5-chloro-2-methoxypyridine-3-sulfonamide]",> 1000
7,"Cc1nn(-c2c(F)ccc(NS(=O)(=O)c3cc(Cl)ccc3Cl)c2F)c(=O)c2cnc(N)nc12 [Example 34, N-(3-(2-amino-8-methyl-5-oxopyrimido[4,5-d]pyridazine-6(5H)-yl)-2,4-difluorophenyl)-2,5-dichlorobenzenesulfonamide]",< 100
8,"Cc1nn(-c2c(F)ccc(NS(=O)(=O)c3cn(C)nc3C(F)(F)F)c2F)c(=O)c2cnc(N)nc12 [Example 35, N-(3-(2-amino-8-methyl-5-oxopyrimido[4,5-d]pyridazine-6(5H)-yl)-2,4-difluorophenyl)-1-methyl-3-(trifluoromethyl)-1H-pyrazole-4-sulfonamide]",> 1000
9,"Cc1nn(-c2c(F)ccc(NS(=O)(=O)c3cc(Cl)cc(CO)c3Cl)c2F)c(=O)c2cnc(N)nc12 [Example 37, N-(3-(2-amino-8-methyl-5-oxopyrimido[4,5-d]pyridazine-6(5H)-yl)-2,4-difluorophenyl)-2,5-dichloro-3-(hydroxymethyl)benzene sulfonamide]",> 1000
10,"CN1CN(c2c(F)ccc(NS(=O)(=O)c3cc(Cl)ccc3Cl)c2F)C(=O)c2cnc(N)nc21 [Example 39, N-(3-(7-amino-1-methyl-4-oxo-1,4-dihydropyrimido[4,5-d]pyrimidin-3(2H)-yl)-2,4-difluorophenyl)-2,5-dichlorobenzenesulfonamide]",100 to 300
11,"COc1ncc(Cl)cc1S(=O)(=O)Nc1ccc(F)c(N2CN(C)c3nc(N)ncc3C2=O)c1F [Example 40, N-(3-(7-amino-1-methyl-4-oxo-1,4-dihydropyrimido[4,5-d]pyrimidin-3(2H)-yl)-2,4-difluorophenyl)-5-chloro-2-methoxypyridine-3-sulfonamide]",100 to 300
12,"CN1CN(c2c(F)ccc(NS(=O)(=O)c3cccc4ccccc34)c2F)C(=O)c2cnc(N)nc21 [Example 41, N-(3-(7-amino-1-methyl-4-oxo-1,4-dihydropyrimido[4,5-d]pyrimidin-3(2H)-yl)-2,4-difluorophenyl)naphthalene-1-sulfonamide]",100 to 300
13,"Cn1c(=O)n(-c2c(F)ccc(NS(=O)(=O)c3cc(Cl)ccc3Cl)c2F)c(=O)c2cnc(N)nc21 [Example 42, N-(3-(7-amino-1-methyl-2,4-dioxo-1,4-dihydropyrimido[4,5-d]pyrimidin-3(2H)-yl)-2,4-difluorophenyl)-2,5-dichlorobenzenesulfonamide]",100 to 300
14,"COc1ncc(C#N)cc1S(=O)(=O)Nc1ccc(F)c(-n2c(=O)c3cnc(N)nc3n(C)c2=O)c1F [Example 47, N-(3-(7-amino-1-methyl-2,4-dioxo-1,4-dihydropyrimido[4,5-d]pyrimidin-3(2H)-yl)-2,4-difluorophenyl)-5-cyano-2-methoxypyridine-3-sulfonamide]",< 100
15,"Cn1c(=O)n(-c2c(F)ccc(NS(=O)(=O)c3cc(C(F)(F)F)ccc3Cl)c2F)c(=O)c2cnc(N)nc21 [Example 49, N-(3-(7-amino-1-methyl-2,4-dioxo-1,2-dihydropyrimido[4,5-d]pyrimidin-3(4H)-yl)-2,4-difluorophenyl)-2-chloro-5-(trifluoromethyl)benzenesulfonamide]",100 to 300
16,"Cn1c(=O)n(-c2c(F)ccc(NS(=O)(=O)c3ccc(Cl)s3)c2F)c(=O)c2cnc(N)nc21 [Example 50, N-(3-(7-amino-1-methyl-2,4-dioxo-1,4-dihydropyrimido[4,5-d]pyrimidin-3(2H)-yl)-2,4-difluorophenyl)-5-chlorothiophene-2-sulfonamide]",< 100
17,"Cc1ccc(Cl)cc1S(=O)(=O)Nc1ccc(F)c(-n2c(=O)c3cnc(N)nc3n(C)c2=O)c1F [Example 52, N-(3-(7-amino-1-methyl-2,4-dioxo-1,4-dihydropyrimido[4,5-d]pyrimidin-3(2H)-yl)-2,4-difluorophenyl)-5-chloro-2-methylbenzenesulfonamide]",< 100
